# Laboratory results: patent publication US7838676B2, “Beta-secretase modulators and methods of use” (Amgen Inc., priority 2005, dated 2010)
# Tested on: Aβ40 in conditioned medium of APP containing cells
# Test: BACE Cell-Based Assay (Aβ40 sandwich ELISA, HEK-293 cells stably expressing APP)
# Conditions: Homo sapiens, HEK293, inhibition of Aβ 40 in conditioned media after 24 h
# Method: The cell-based assay measures inhibition or reduction of Aβ40 in conditioned medium of test compound treated APP containing cells.
# Cells stably expressing Amyloid Precursor Protein (APP) were plated at a density of 40K cells/well in 96 well plates (Costar). The cells were cultivated for 24 h at 37° C. and 5% CO2 in DMEM supplemented with 10% FBS. The test compounds were then added to cells in 10-point dose response concentrations with the starting concentration being either 100 μM or 10 μM. The compounds were diluted from stock solutions in DMSO and the final DMSO concentration of the test compounds on cells was 0.1%. After 24 h of incubation with the test compounds the supernatant conditioned media was collected and the Aβ 40 levels were determined using a sandwich ELISA. The IC50 of the compound was calculated from the percent of control or percent inhibition of Aβ 40 as a function of the concentration of the test compound.
# The sandwich ELISA to detect Aβ 40 was performed in 96 well microtiter plates, which were pre-treated with goat anti-rabbit IgG (Pierce). The capture and detecting antibody pair that were used to detect Aβ 40 from cell supernatants were affinity purified pAb40 (Biosource) and biotinylated 6E10 (Signet Labs Inc.), respectively. The optimal concentration for the pAb40 antibody was 3 μg/ml in Superblock/TBS (Pierce) that was supplemented with 0.05% Tween 20 (Sigma). Optimal concentration for the detection antibody 6E10-biotinylated was 0.5 μg/ml in Superblock/TBS (Pierce) that had been supplemented with 2% normal goat serum and 2% normal mouse serum.
# Cellular supernatants were incubated with the capture antibody for 3 h at 4° C., followed by 3 wash steps in TBS-tween (0.05%). The detecting antibody incubation was for 2 h at 4° C., again followed by the wash steps as described previously. The final readout of the ELISA is Time-Resolved Fluorescence (counts per minute) using Delfia reagents Streptavidin-Europium and Enhancement solutions (Perkin Elmer) and the Victor 2 multilabel counter (Perkin Elmer).
row,IC50 [µM],SMILES
1,≤ 5,"Cc1cnc2c(c1)[C@@H](NC[C@@H](O)[C@H](Cc1cc(F)cc(F)c1)NC(=O)c1ccc(N3CCCC3=O)c(F)c1)CC1(CCC1)C2 [Example 146, N-((1S,2R)-1-((3,5-difluorophenyl)methyl)-2-hydroxy-3-(((5′S)-3′-methyl-5′,8′-dihydro-6′H-spiro[cyclobutane-1,7′-quinolin]-5′-yl)amino)propyl)-3-fluoro-4-(2-oxo-1-pyrrolidinyl)benzamide]"
2,≤ 5,"CCc1ccc2c(c1)[C@@H](NC[C@@H](O)[C@H](Cc1ccccc1)NC(=O)c1ccnc(N3CCOCC3)c1)CC1(CCCC1)O2 [Example 169, N-((2S,3R)-4-((S)-6-ethyl-2,2-spirocyclopentylchroman-4-ylamino)-3-hydroxy-1-phenylbutan-2-yl)-2-morpholinoisonicotinamide]"
3,≤ 5,"CCc1ccc2c(c1)[C@@H](NC[C@@H](O)[C@H](Cc1ccccc1)NC(=O)c1ccnc(N3CCCCC3)c1)CC1(CCCC1)O2 [Example 167, N-((2S,3R)-4-((S)-6-ethyl-2,2-spirocyclopentylchroman-4-ylamino)-3-hydroxy-1-phenylbutan-2-yl)-2-(piperidin-1-yl)isonicotinamide]"
4,≤ 5,CCc1ccc2c(c1)[C@@H](NC[C@@H](O)[C@H](Cc1ccccc1)NC(=O)c1cccc(-c3ccccn3)c1)CC1(CCCC1)O2 [Example 106]
5,≤ 5,"CCc1ccc2c(c1)[C@@H](NC[C@@H](O)[C@H](Cc1ccccc1)NC(=O)c1cncnc1)CC1(CCC1)O2 [Example 19, N-((2S,3R)-4-((S)-6-ethyl-2,2-spirocyclobutylchroman-4-ylamino)-3-hydroxy-1-phenylbutan-2-yl)pyrimidine-5-carboxamide]"
6,≤ 5,"CCc1ccc2c(c1)[C@@H](NC[C@@H](O)[C@H](Cc1ccccc1)NC(=O)c1cc(N3CCCC3=O)ccc1OC)CC1(CCCC1)O2 [Example 30, N-((2S,3R)-4-((S)-6-ethyl-2,2-spirocyclopentylchroman-4-ylamino)-3-hydroxy-1-phenylbutan-2-yl)-2-methoxy-5-(2-oxopyrrolidin-1-yl)benzamide]"
7,≤ 5,"O=C(N[C@@H](Cc1ccccc1)[C@H](O)CN[C@H]1CC2(CCC2)Oc2ccc(Br)cc21)c1ccno1 [Example 162, N-((1S,2R)-3-(((4S)-6-bromo-3,4-dihydrospiro[chromene-2,1′-cyclobutan]-4-yl)amino)-2-hydroxy-1-(phenylmethyl)propyl)-5-isoxazolecarboxamide]"
